In ChEMBL document CHEMBL4665850, “Effect of methoxyflavones contained in Kaempferia parviflora on CRE-mediated transcription in PC12D cells” (Bioorg Med Chem Lett, 2020) one finds Activity data, which are given here for nine compounds.

Activity calls are given as the source filed them. No cut-off for these calls is given here.

Data set [1] in a line: Cytotoxicity against rat PC12D cells assessed as reduction in cell viability at 30 uM by MTT assay. In kind it is cell-based.
A further data set has as its system PC12D. The experiment in a line: Activation of CRE-mediated transcription in rat PC12D cells transfected with pCRE-firefly luciferase and pRL-null-renilla luciferase assessed as increase in CRE-driven firefly luciferase activity at 30 uM by dual luciferase reporter gene assay. The class given is functional, cell-based.
Data set [2] can be described thus: Effect on transcription in rat PC12D cells transfected with pCRE-firefly luciferase and pRL-null-renilla luciferase assessed as renilla luciferase activity at 30 uM by dual luciferase reporter gene assay. The class given is ADME, cell-based.

With `COc1cc(O)c2c(=O)c(OC)c(-c3ccccc3)oc2c1`, the Activity entry in data set [1] and in data set [2] was “Non-Toxic” each time. Also, the result with PC12D was inactive.

With `COc1ccc(-c2cc(=O)c3c(OC)cc(OC)cc3o2)cc1` [TRIMETHYLAPIGENIN], the Activity result in data set [1] was “Non-Toxic”; in data set [2], “Toxic”. The result in the data set on PC12D was Active.

As to `COc1cc(OC)c2c(=O)cc(-c3ccc(OC)c(OC)c3)oc2c1` [TETRAMETHYLLUTEOLIN], the Activity result in data set [1] was “Non-Toxic”; in data set [2] it was “Toxic”. Further, the result with PC12D was Active.

On to `COc1cc(OC)c2c(=O)cc(-c3ccccc3)oc2c1` [CHRYSIN DIMETHYL ETHER], for which the Activity result in data set [1] is reported as “Non-Toxic”; in data set [2], “Toxic”. Also, the outcome with PC12D was Active.

`COc1cc(O)c2c(=O)c(OC)c(-c3ccc(OC)c(OC)c3)oc2c1` [RETUSIN]: the Activity result in data set [1] and in data set [2] was “Non-Toxic” in each case. In addition, the result in the data set with PC12D was inactive.

Take `COc1ccc(-c2oc3cc(OC)cc(O)c3c(=O)c2OC)cc1`: the Activity result in data set [1] and in data set [2] was “Non-Toxic” each time. Also, the result with PC12D was inactive.

In the case of `COc1cc(OC)c2c(=O)c(OC)c(-c3ccc(OC)c(OC)c3)oc2c1`, the Activity entry in data set [1] and in data set [2] was “Non-Toxic” each time. Besides, the outcome with PC12D was Active.

As to `COc1cc(O)c2c(=O)cc(-c3ccccc3)oc2c1` [TECHTOCHRYSIN], the Activity result in data set [1] and in data set [2] was “Non-Toxic” throughout. Also, in the data set with PC12D, the result was inactive.

For `COc1ccc(-c2cc(=O)c3c(O)cc(OC)cc3o2)cc1` [APIGENIN DIMETHYLETHER], the Activity result in data set [1] and in data set [2] was “Non-Toxic” each time. In addition, the result with PC12D was inactive.
